Source: ChEMBL document CHEMBL4507280 (2021)

What was measured:
[1] = target: Cyclin-dependent kinase 9 (Homo sapiens) (UniProt P50750); conditions: Compound concentration 1000.0 nM
[2] = target: Protein kinase C eta type (Homo sapiens) (UniProt P24723); conditions: Compound concentration 1000.0 nM
[3] = target: Serine/threonine-protein kinase PLK2 (Homo sapiens) (UniProt Q9NYY3); conditions: Compound concentration 1000.0 nM
[4] = target: Tyrosine-protein kinase ZAP-70 (Homo sapiens) (UniProt P43403); conditions: Compound concentration 1000.0 nM
[5] = target: Receptor-interacting serine/threonine-protein kinase 2 (Homo sapiens) (UniProt O43353); conditions: Compound concentration 1000.0 nM
[6] = target: Casein kinase I isoform gamma-1 (Homo sapiens) (UniProt Q9HCP0); conditions: Compound concentration 1000.0 nM
[7] = target: Hepatocyte growth factor receptor (Homo sapiens) (UniProt P08581); conditions: Compound concentration 1000.0 nM
[8] = target: STE20-like serine/threonine-protein kinase (Homo sapiens) (UniProt Q9H2G2); conditions: Compound concentration 1000.0 nM
[9] = target: MAP/microtubule affinity-regulating kinase 3 (Homo sapiens) (UniProt P27448); conditions: Compound concentration 1000.0 nM
[10] = target: D(1B) dopamine receptor (Homo sapiens) (UniProt P21918); conditions: Compound concentration 10.0 uM
[11] = target: Platelet-derived growth factor receptor beta (Homo sapiens) (UniProt P09619); conditions: Compound concentration 1000.0 nM
[12] = target: Beta-2 adrenergic receptor (Homo sapiens) (UniProt P07550); conditions: Compound concentration 10.0 uM
[13] = tested on: eIF-2-alpha kinase GCN2 (Homo sapiens), Q9P2K8 [S808G]; conditions: Compound concentration 1000.0 nM
[14] = tested on: Fibroblast growth factor receptor 3 (Homo sapiens), P22607 [G697C]; conditions: Compound concentration 1000.0 nM
[15] = target: Tyrosine-protein kinase Fes/Fps (Homo sapiens) (UniProt P07332); conditions: Compound concentration 1000.0 nM
Histamine H4 receptor = Histamine H4 receptor (Homo sapiens, UniProt Q9H3N8); conditions: Compound concentration 10.0 uM
[16] = target: Inhibitor of nuclear factor kappa-B kinase subunit alpha (Homo sapiens) (UniProt O15111); conditions: Compound concentration 1000.0 nM
[17] = target: Discoidin domain-containing receptor 2 (Homo sapiens) (UniProt Q16832); conditions: Compound concentration 1000.0 nM
[18] = target: Calcium/calmodulin-dependent protein kinase kinase 1 (Homo sapiens) (UniProt Q8N5S9); conditions: Compound concentration 1000.0 nM
[19] = target: Ephrin type-A receptor 5 (Homo sapiens) (UniProt P54756); conditions: Compound concentration 1000.0 nM
[20] = target: Sodium-dependent dopamine transporter (Homo sapiens) (UniProt Q01959); conditions: Compound concentration 10.0 uM
[21] = target: Serine/threonine-protein kinase 10 (Homo sapiens) (UniProt O94804); conditions: Compound concentration 1000.0 nM
[22] = target: Mitogen-activated protein kinase kinase kinase 3 (Homo sapiens) (UniProt Q99759); conditions: Compound concentration 1000.0 nM
[23] = target: Serine/threonine-protein kinase PAK 3 (Homo sapiens) (UniProt O75914); conditions: Compound concentration 1000.0 nM
[24] = target: Serine/threonine-protein kinase 32B (Homo sapiens) (UniProt Q9NY57); conditions: Compound concentration 1000.0 nM
[25] = target: Mast/stem cell growth factor receptor Kit (Homo sapiens) (UniProt P10721); conditions: Compound concentration 1000.0 nM
[26] = target: Mitogen-activated protein kinase kinase kinase kinase 2 (Homo sapiens) (UniProt Q12851); conditions: Compound concentration 1000.0 nM
[27] = target: Serine/threonine-protein kinase DCLK3 (Homo sapiens) (UniProt Q9C098); conditions: Compound concentration 1000.0 nM
[28] = target: Mitogen-activated protein kinase kinase kinase 1 (Homo sapiens) (UniProt Q13233); conditions: Compound concentration 1000.0 nM
[29] = target: Serine/threonine-protein kinase WNK4 (Homo sapiens) (UniProt Q96J92); conditions: Compound concentration 1000.0 nM
[30] = target: Myosin-IIIa (Homo sapiens) (UniProt Q8NEV4); conditions: Compound concentration 1000.0 nM
[31] = tested on: Epidermal growth factor receptor (Homo sapiens), P00533 [UNDEFINED MUTATION]; conditions: Compound concentration 1000.0 nM
[32] = target: Dual specificity protein kinase CLK2 (Homo sapiens) (UniProt P49760); conditions: Compound concentration 1000.0 nM
[33] = target: Tyrosine-protein kinase JAK2 (Homo sapiens) (UniProt O60674); conditions: Compound concentration 1000.0 nM
[34] = target: Serine/threonine-protein kinase PLK4 (Homo sapiens) (UniProt O00444); conditions: Compound concentration 1000.0 nM
[35] = target: Serine/threonine-protein kinase PLK1 (Homo sapiens) (UniProt P53350); conditions: Compound concentration 1000.0 nM
[36] = tested on: Receptor-type tyrosine-protein kinase FLT3 (Homo sapiens), P36888 [D835Y]; conditions: Compound concentration 1000.0 nM
[37] = tested on: Serine/threonine-protein kinase B-raf (Homo sapiens), P15056 [V600E]; conditions: Compound concentration 1000.0 nM
[38] = target: Death-associated protein kinase 1 (Homo sapiens) (UniProt P53355); conditions: Compound concentration 1000.0 nM
[39] = target: Platelet-derived growth factor receptor alpha (Homo sapiens) (UniProt P16234); conditions: Compound concentration 1000.0 nM
[40] = target: Vascular endothelial growth factor receptor 3 (Homo sapiens) (UniProt P35916); conditions: Compound concentration 1000.0 nM
[41] = target: LIM domain kinase 2 (Homo sapiens) (UniProt P53671); conditions: Compound concentration 1000.0 nM
[42] = target: GABA-A receptor; anion channel (Rattus norvegicus) (UniProt O09028+P15431+P18506+P18508+P19969+P20236+P23574+P23576+P28471+P28473+P30191+P62813+P63079+P63138+Q91ZM7+Q9ES14); conditions: Compound concentration 10.0 uM
[43] = target: Rhodopsin kinase GRK7 (Homo sapiens) (UniProt Q8WTQ7); conditions: Compound concentration 1000.0 nM

Sequence of Histamine H4 receptor (Q9H3N8 whole entry): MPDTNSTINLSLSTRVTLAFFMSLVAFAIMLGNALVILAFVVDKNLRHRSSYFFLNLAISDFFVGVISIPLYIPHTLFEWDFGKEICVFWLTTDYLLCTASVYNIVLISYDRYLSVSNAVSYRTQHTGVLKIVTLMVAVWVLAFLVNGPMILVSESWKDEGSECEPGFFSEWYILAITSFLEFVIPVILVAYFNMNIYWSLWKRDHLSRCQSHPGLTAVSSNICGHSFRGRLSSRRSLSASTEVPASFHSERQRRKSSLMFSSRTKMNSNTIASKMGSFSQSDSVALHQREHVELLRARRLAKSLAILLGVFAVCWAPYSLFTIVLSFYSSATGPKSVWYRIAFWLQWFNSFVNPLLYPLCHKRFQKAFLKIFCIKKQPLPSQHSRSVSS
Sequence of Mast/stem cell growth factor receptor Kit (Homo sapiens) (P10721 whole entry): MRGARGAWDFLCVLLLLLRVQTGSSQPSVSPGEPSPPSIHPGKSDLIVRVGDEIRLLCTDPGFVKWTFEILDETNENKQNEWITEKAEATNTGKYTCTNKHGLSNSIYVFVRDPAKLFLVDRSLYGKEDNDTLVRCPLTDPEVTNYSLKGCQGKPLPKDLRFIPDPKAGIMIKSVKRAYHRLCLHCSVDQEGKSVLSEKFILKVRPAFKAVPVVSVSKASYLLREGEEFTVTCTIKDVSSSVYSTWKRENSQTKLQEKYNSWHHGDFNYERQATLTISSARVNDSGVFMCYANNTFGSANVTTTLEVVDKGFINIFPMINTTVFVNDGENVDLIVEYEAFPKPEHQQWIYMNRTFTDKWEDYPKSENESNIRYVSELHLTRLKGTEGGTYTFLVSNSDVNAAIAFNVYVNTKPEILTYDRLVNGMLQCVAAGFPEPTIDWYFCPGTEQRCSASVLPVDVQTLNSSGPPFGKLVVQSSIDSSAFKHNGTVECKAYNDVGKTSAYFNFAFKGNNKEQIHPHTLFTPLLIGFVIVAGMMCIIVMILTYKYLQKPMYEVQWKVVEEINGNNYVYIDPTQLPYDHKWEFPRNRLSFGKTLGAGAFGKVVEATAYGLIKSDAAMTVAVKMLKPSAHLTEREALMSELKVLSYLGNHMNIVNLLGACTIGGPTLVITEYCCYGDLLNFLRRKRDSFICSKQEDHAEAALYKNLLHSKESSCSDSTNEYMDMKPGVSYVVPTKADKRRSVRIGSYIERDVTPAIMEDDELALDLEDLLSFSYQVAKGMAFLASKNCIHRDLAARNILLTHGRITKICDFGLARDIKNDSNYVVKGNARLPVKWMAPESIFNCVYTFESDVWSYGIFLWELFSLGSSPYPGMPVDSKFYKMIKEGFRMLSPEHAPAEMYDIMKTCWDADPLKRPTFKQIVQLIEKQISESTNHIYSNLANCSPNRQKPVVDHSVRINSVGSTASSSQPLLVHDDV
Sequence of Dual specificity protein kinase CLK2 (Homo sapiens) (P49760 whole entry, looked up): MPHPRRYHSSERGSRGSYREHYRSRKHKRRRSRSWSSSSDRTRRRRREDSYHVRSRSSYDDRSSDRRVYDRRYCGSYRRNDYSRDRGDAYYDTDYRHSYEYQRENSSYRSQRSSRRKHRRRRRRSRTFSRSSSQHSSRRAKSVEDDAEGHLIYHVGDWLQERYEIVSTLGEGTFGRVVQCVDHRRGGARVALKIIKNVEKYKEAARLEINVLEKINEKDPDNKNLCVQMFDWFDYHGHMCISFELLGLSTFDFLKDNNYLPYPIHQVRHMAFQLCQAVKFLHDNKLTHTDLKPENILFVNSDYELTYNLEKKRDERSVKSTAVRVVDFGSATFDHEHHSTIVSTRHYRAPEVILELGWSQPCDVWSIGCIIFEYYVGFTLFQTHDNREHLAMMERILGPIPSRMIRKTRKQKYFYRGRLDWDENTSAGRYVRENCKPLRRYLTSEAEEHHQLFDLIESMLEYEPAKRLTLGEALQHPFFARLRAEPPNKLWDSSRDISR
Sequence of eIF-2-alpha kinase GCN2 (Homo sapiens), Q9P2K8 [S808G] (Q9P2K8 whole entry S808G): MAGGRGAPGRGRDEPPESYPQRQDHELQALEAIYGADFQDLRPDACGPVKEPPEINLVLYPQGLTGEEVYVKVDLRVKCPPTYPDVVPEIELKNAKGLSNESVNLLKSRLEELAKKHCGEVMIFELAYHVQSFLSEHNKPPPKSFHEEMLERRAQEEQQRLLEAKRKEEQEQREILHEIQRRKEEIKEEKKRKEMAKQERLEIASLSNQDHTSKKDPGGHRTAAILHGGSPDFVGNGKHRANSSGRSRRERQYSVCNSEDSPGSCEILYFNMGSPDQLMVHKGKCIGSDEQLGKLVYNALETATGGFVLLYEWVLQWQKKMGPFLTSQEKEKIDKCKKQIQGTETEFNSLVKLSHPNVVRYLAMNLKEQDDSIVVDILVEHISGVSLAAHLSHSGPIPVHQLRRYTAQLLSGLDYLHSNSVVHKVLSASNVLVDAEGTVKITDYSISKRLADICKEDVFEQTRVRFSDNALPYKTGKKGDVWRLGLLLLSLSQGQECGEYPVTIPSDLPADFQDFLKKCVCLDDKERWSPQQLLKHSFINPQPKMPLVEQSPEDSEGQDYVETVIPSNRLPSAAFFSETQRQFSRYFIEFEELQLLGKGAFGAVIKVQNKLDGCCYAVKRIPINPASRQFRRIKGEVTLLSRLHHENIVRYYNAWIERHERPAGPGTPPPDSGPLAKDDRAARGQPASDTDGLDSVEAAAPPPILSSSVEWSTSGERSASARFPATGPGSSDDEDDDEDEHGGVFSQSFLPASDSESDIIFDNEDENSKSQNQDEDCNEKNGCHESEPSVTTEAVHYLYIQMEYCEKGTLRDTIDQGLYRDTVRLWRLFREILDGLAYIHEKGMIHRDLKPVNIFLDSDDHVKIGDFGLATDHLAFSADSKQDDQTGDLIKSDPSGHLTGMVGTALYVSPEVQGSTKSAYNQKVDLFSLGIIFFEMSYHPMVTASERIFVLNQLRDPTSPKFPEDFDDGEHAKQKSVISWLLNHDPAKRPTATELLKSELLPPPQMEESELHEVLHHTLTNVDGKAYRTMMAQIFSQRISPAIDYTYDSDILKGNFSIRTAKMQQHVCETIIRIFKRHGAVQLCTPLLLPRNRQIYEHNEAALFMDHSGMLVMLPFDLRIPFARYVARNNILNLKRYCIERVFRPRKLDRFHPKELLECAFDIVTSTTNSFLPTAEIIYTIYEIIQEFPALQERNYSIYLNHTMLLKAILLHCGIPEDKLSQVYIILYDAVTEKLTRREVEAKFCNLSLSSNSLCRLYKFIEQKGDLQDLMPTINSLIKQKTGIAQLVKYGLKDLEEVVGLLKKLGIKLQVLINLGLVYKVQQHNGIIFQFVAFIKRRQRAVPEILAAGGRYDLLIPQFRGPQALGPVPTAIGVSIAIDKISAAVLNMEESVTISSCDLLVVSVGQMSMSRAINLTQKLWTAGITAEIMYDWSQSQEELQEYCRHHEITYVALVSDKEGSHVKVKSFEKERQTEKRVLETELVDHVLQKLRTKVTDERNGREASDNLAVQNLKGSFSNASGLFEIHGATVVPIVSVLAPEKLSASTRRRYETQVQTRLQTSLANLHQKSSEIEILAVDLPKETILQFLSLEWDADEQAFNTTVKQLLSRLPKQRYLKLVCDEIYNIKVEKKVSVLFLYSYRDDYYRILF
Sequence of MAP/microtubule affinity-regulating kinase 3 (Homo sapiens) (P27448 whole entry, looked up): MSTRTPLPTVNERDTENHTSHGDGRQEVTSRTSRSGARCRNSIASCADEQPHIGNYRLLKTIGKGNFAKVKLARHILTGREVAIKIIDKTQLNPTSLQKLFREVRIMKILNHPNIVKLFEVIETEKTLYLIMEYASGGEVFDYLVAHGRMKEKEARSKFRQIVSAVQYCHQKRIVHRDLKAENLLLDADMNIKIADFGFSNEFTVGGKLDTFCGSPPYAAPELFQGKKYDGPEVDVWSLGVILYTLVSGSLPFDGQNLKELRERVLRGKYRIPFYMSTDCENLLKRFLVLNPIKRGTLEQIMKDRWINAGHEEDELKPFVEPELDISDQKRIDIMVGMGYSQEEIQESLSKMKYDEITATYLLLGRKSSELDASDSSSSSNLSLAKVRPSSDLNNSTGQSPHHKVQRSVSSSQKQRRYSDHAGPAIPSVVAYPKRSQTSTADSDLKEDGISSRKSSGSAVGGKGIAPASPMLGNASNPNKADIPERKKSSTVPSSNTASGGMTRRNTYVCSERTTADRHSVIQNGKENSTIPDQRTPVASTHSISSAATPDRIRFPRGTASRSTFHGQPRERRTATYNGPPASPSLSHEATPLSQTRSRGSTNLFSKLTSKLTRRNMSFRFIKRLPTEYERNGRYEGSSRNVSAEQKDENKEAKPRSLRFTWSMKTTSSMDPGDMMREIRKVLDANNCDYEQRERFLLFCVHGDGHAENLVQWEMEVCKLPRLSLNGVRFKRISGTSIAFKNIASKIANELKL
Sequence of Serine/threonine-protein kinase 32B (Homo sapiens) (Q9NY57 whole entry): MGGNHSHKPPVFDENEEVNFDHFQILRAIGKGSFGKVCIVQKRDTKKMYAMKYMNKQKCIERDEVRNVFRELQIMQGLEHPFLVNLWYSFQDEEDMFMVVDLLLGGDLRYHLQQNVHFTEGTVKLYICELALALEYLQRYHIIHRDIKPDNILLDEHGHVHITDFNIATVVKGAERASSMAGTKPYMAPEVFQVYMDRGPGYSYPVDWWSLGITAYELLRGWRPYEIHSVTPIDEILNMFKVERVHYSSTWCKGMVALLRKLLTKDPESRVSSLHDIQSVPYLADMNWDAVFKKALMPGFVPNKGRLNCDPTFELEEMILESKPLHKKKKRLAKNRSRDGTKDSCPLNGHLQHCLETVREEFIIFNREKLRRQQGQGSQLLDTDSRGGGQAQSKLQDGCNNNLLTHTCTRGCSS
Sequence of Cyclin-dependent kinase 9 (Homo sapiens) (P50750 whole entry): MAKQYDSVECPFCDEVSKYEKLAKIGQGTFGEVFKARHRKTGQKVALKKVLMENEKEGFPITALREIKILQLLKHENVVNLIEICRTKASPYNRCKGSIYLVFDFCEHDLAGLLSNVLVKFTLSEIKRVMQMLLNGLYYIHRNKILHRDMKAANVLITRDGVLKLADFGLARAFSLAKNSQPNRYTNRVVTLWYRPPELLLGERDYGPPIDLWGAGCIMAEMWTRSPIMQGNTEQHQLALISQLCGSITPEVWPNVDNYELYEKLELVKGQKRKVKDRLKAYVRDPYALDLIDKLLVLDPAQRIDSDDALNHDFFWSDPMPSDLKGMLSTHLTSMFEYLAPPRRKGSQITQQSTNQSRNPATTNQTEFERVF

Q: With `CCC(=O)N[C@@H]1CC[C@H](C(=O)N(C)c2ccc(-c3nc4ccccc4o3)cc2)C1` [BI 99990] as the compound, how does the residual activity [1] read?
A: Its residual activity is 100%.

Q: And the residual activity [2]?
A: Its residual activity is 95%.

Q: What about the residual activity [3] of the same compound?
A: Its residual activity is 100%.

Q: And the residual activity [4]?
A: The residual activity was 100%.

Q: And the residual activity [5]?
A: The residual activity was 85%.

Q: And the residual activity [6]?
A: Its residual activity is 100%.

Q: What about the residual activity [7] of the same compound?
A: The residual activity was 100%.

Q: What about the residual activity [8] of the same compound?
A: The residual activity was 100%.

Q: What about the residual activity [9] of the same compound?
A: The residual activity was 100%.

Q: And the inhibition [10]?
A: The inhibition was 4.47%.

Q: And the residual activity [11]?
A: Its residual activity is 98%.

Q: What about the inhibition [12] of the same compound?
A: Its inhibition is 0.247%.

Q: What about the residual activity [13] of the same compound?
A: The residual activity was 54%.

Q: And the residual activity [14]?
A: Its residual activity is 88%.

Q: And the residual activity [15]?
A: The residual activity was 96%.

Q: And the inhibition (Histamine H4 receptor)?
A: Its inhibition is 55.3%.

Q: And the residual activity [16]?
A: The residual activity was 100%.

Q: And the residual activity [17]?
A: The residual activity was 92%.

Q: What about the residual activity [18] of the same compound?
A: Its residual activity is 100%.

Q: And the residual activity [19]?
A: Its residual activity is 100%.

Q: And the inhibition [20]?
A: Its inhibition is 23.3%.

Q: What about the residual activity [21] of the same compound?
A: Its residual activity is 89%.

Q: What about the residual activity [22] of the same compound?
A: The residual activity was 96%.

Q: And the residual activity [23]?
A: Its residual activity is 98%.

Q: And the residual activity [24]?
A: The residual activity was 71%.

Q: What about the residual activity [25] of the same compound?
A: Its residual activity is 100%.

Q: What about the residual activity [26] of the same compound?
A: The residual activity was 100%.

Q: And the residual activity [27]?
A: The residual activity was 100%.

Q: And the residual activity [28]?
A: Its residual activity is 74%.

Q: What about the residual activity [29] of the same compound?
A: The residual activity was 100%.

Q: And the residual activity [30]?
A: The residual activity was 100%.

Q: And the residual activity [31]?
A: The residual activity was 62%.

Q: And the residual activity [32]?
A: The residual activity was 100%.

Q: And the residual activity [33]?
A: The residual activity was 100%.

Q: What about the residual activity [34] of the same compound?
A: Its residual activity is 100%.

Q: What about the residual activity [35] of the same compound?
A: Its residual activity is 95%.

Q: What about the residual activity [36] of the same compound?
A: The residual activity was 100%.

Q: And the residual activity [37]?
A: Its residual activity is 100%.

Q: What about the residual activity [38] of the same compound?
A: The residual activity was 100%.

Q: And the residual activity [39]?
A: The residual activity was 86%.

Q: And the residual activity [40]?
A: Its residual activity is 100%.

Q: What about the residual activity [41] of the same compound?
A: The residual activity was 100%.

Q: What about the inhibition [42] of the same compound?
A: The inhibition was 0.94%.

Q: And the residual activity [43]?
A: The residual activity was 93%.

Q: Which results are given for `CCC(=O)N[C@H]1CC[C@@H](C(=O)N(C)c2ccc(-c3nc4ccccc4o3)cc2)C1` [BI 99179]?
A: residual activity [1]: 95%; residual activity [2]: 96%; residual activity [3]: 96%; residual activity [4]: 82%; residual activity [5]: 100%; residual activity [6]: 90%; residual activity [7]: 100%; residual activity [8]: 92%; residual activity [9]: 96%; inhibition [10]: -9.45%; residual activity [11]: 89%; inhibition [12]: 1.55%; residual activity [13]: 100%; residual activity [14]: 100%; residual activity [15]: 73%; inhibition (Histamine H4 receptor): 39.3%; residual activity [16]: 100%; residual activity [17]: 100%; residual activity [18]: 85%; residual activity [19]: 78%; inhibition [20]: 77.3%; residual activity [21]: 100%; residual activity [22]: 89%; residual activity [23]: 98%; residual activity [24]: 98%; residual activity [25]: 94%; residual activity [26]: 96%; residual activity [27]: 87%; residual activity [28]: 73%; residual activity [29]: 100%; residual activity [30]: 100%; residual activity [31]: 78%; residual activity [32]: 95%; residual activity [33]: 70%; residual activity [34]: 78%; residual activity [35]: 97%; residual activity [36]: 100%; residual activity [37]: 96%; residual activity [38]: 96%; residual activity [39]: 85%; residual activity [40]: 97%; residual activity [41]: 100%; inhibition [42]: 21.1%; residual activity [43]: 82%
